Results published in patent publication US20120070508A1, “Methods, Compositions, and Devices for Managing Chlorine Dioxide Release” (DHARMA IP, LLC, priority 2010, published 2012).

Assay: Enhanced solubility of beta-cyclodextrin in water containing ClO2 (slurry test)
Conditions: 100 g slurry, 5% (w/w) in 8000 ppm ClO2 vs ultrapure water, 200 rpm, 3 days

OC[C@H]1O[C@@H]2O[C@H]3[C@H](O)[C@@H](O)[C@@H](O[C@H]4[C@H](O)[C@@H](O)[C@@H](O[C@H]5[C@H](O)[C@@H](O)[C@@H](O[C@H]6[C@H](O)[C@@H](O)[C@@H](O[C@H]7[C@H](O)[C@@H](O)[C@@H](O[C@H]8[C@H](O)[C@@H](O)[C@@H](O[C@H]1[C@H](O)[C@H]2O)O[C@@H]8CO)O[C@@H]7CO)O[C@@H]6CO)O[C@@H]5CO)O[C@@H]4CO)O[C@@H]3CO [beta-cyclodextrin]
weight of undissolved dried beta-cyclodextrin, less than control slurry: 0.32 g
